Structures are written as SMILES.

The record followed here is patent publication US20230150951A1, “2,5- OR 2,6-DISUBSTITUTED HYDROQUINONE DERIVATIVES WITH AT LEAST ONE CARBOXY, SULFO OR AMIDO GROUP USEFUL AS MEDICAMENTS” (OM PHARMA SA, priority 2020, published 2023).

Holding throughout (type): cell-based
For one test, the target named is T1, VEGFR-2 (Homo sapiens, UniProt P35968).
T1 construct: endogenous in cells; host or cells: primary HUVEC
Kind of test: VEGF-165 induced phosphorylation of VEGF-Receptor on HUVEC. The following applies: HUVEC preincubated 60 min, VEGF165 25 ng/mL 2 min; read-out: VEGFR-Phosphorylation inhibition IC50.

The next test has as its target T2, VEGF-A (Homo sapiens, UniProt P15692).
T2 construct: purchased ProQinase GmbH
T2 sequence (P15692 27-191 isoform P15692-4): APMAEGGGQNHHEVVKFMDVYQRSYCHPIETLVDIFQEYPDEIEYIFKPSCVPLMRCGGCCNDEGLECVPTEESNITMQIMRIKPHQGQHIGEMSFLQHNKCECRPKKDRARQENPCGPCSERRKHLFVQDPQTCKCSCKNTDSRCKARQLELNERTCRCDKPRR
Description: VEGF-A induced sprouting of HUVEC, spheroid-based cellular angiogenesis assay. As to conditions: VEGF-A 25 ng/mL preincubated with compound, 24 h, read-out: VEGF-A1 IC50. The protocol: Aim of this in vitro method is to assess compounds effects on FGF-2, FGF-1, or VEGF-A induced sprouting of human umbilical vein endothelial cells (HUVEC) in the spheroid-based cellular angiogenesis assay. Before adding the growth factors to the cells, they were preincubated with the compound. Sunitinib was tested as a control (without preincubation).
IC50 values determined for the tested compounds are expressed in microM [μM] and the values for the inhibition of FGF-1, FGF2 and VEGF-A induced growth (sprouting) are listed after each compound in the examples after chemical characterization.
Sprouting test was performed on the compounds dissolved in DMSO to reach 100-fold concentrated stock solutions and dissolved in culture media. Sunitinib as reference compound was provided by ProQinase GmbH. Growth factors were purchased from rhFGF-basic (FGF-2), Peprotech, New Jersey, USA, #100-18C, Lot #0415571; rhFGF-acidic (FGF-1), Peprotech, New Jersey, USA, #100-17A, Lot #031207; hVEGF-A165 (ProQinase GmbH, Freiburg, Germany; 05.02.2010) were used for stimulation of HUVEC cells growth.
Test system: Endothelial cells from human umbilical vein (HUVEC) from pooled donors were stored frozen with 70% medium, 20% FCS, 10% DMSO at about 1×10^6 cells/ampoule. HUVEC cells, primary human umbilical vein endothelial cells (PromoCell, Heidelberg, Germany), were used after passage 3 to 4. Morphology of the cells are adherent, cobblestone-like growing as monolayer and were cultured in endothelial cell growth and basal medium (ECGM/ECBM, PromoCell). The subculture was split 1:3; every 3-5 days, seed out at ca. 1×10^4 cells/cm^2 and incubated at 37° C. with 5% CO2 with a doubling time 24-48 hours
Dilution of test compounds: 100× concentrated solutions (concerning to the final assay concentrations) of each test compound were prepared with the appropriate solvent (in DMSO or in water). These 100×compound solutions were further diluted in endothelial cell growth and basal medium (ECBM) 1:7.5 to get a 13.33× concentrated solution. 75 μl of the 13.33×solution was subsequently mixed with 25 μl of 40× concentrated stimulus (solved in ECBM), resulting in a 10×concentrated stimulus/compound mixture. This mixture (100 μl) was incubated for 30 min at 37° C. and then added to 900 μl gel, containing the HUVEC spheroids (resulting in the final assay concentration).
Test method: the experiments were pursued in modification of the originally published protocol (Korff and Augustin: J Cell Sci 112: 3249-58, 1999). In brief, spheroids were prepared as described (Korff and Augustin: J Cell Biol 143: 1341-52, 1998) by pipetting 400 HUVEC in a hanging drop on plastic dishes to allow overnight spheroid aggregation. 50 HUVEC spheroids were then seeded in 0.9 ml of a collagen gel and pipetted into individual wells of a 24 well plate to allow polymerization. The test compounds were preincubated with the growth factors (FGF-1, FGF-2 or VEGF-A final concentration 25 ng/mL) in a 10-fold concentrated solution and subsequently, 100 μl of this solution was added on top of the polymerized gel. All compounds were diluted in solvent (DMSO or water) as 100×stocks first (which means 100×stocks of each final assay concentration were prepared in solvent). Subsequently, these stocks were further diluted in medium (resulting in the 13.33×stocks of each final assay concentration) with final concentrations tested: 100, 50, 25, 12.5, 6.25, 3.13 and 1.56×10^−6 M). Plates were incubated at 37° C. for 24 hours and fixed by adding 4% PFA (Roth, Karlsruhe, Germany).
Quantification of growth factor inhibition: sprouting intensity of HUVEC spheroids treated with the growth factor and the inhibitors were quantitated by an image analysis system determining the cumulative sprout length per spheroid (CSL).

The target in another test is T3, FGF-1 (Homo sapiens, UniProt P05230).
T3 construct: purchased Peprotech 100-17A
T3 sequence (P05230 whole entry): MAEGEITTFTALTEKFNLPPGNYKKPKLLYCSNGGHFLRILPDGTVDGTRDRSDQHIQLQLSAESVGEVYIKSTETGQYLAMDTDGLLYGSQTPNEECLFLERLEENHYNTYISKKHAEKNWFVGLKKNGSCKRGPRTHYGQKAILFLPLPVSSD
Description: FGF-1 induced sprouting of HUVEC, spheroid-based cellular angiogenesis assay. The following applies: FGF-1 25 ng/mL preincubated with compound, 24 h. An outline of the steps:
(§1)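 Compound (final 100 down to 1.56×10^−6 M) was mixed with growth factor (final 25 ng/mL) for 30 min at 37°C, then added onto collagen-embedded 400-cell HUVEC spheroids.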

Test [1] concerns Human neutrophils. Description: Inhibition of ROS production in human neutrophils (isoluminol chemiluminescence). The following applies: Homo sapiens, Neutrophil, fMLP+TNF-α stimulated PMN. The method, boiled down:
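Extracellular ROS measured as isoluminol-amplified chemiluminescence following 1 μM fMLP activation on fibrinogen-coated plates, readings every 25 sec over 250 sec minus HBSS/isoluminol background. Beforehand, cells were treated with compounds at 0.1, 0.3, 1, 3 or 10 μM (30 min, 37° C) and TNF-α (20 ng/ml, 10 min); duplicate or triplicate.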

Test [2] relates to Human neutrophils. Kind of test: Neutrophil adhesion under static conditions. As to conditions: fMLP-stimulated adhesion to fibrinogen; method: 40 μM and 80 μM, concentration of the value not stated. An outline of the steps:
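Donor buffy-coat neutrophils (3×10^6/ml, PBS with Ca/Mg, 10% FCS, pH 7.2) preincubated 30 min at 37° C with 40 μM or 80 μM compound, then stimulated 1 min at 37° C with 1 nM fMLP on fibrinogen-coated glass. Adherent cells fixed and counted by computer; mean ± SD, unpaired t-test.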

A further test has as its target T4, FGF-2 (Homo sapiens, UniProt P09038).
T4 construct: purchased Peprotech 100-18C
Description: FGF-2 induced sprouting of HUVEC, spheroid-based cellular angiogenesis assay. As to conditions: FGF-2 25 ng/mL preincubated with compound, 24 h. An outline of the steps: as §1

T1 sequence (P35968 20-1356): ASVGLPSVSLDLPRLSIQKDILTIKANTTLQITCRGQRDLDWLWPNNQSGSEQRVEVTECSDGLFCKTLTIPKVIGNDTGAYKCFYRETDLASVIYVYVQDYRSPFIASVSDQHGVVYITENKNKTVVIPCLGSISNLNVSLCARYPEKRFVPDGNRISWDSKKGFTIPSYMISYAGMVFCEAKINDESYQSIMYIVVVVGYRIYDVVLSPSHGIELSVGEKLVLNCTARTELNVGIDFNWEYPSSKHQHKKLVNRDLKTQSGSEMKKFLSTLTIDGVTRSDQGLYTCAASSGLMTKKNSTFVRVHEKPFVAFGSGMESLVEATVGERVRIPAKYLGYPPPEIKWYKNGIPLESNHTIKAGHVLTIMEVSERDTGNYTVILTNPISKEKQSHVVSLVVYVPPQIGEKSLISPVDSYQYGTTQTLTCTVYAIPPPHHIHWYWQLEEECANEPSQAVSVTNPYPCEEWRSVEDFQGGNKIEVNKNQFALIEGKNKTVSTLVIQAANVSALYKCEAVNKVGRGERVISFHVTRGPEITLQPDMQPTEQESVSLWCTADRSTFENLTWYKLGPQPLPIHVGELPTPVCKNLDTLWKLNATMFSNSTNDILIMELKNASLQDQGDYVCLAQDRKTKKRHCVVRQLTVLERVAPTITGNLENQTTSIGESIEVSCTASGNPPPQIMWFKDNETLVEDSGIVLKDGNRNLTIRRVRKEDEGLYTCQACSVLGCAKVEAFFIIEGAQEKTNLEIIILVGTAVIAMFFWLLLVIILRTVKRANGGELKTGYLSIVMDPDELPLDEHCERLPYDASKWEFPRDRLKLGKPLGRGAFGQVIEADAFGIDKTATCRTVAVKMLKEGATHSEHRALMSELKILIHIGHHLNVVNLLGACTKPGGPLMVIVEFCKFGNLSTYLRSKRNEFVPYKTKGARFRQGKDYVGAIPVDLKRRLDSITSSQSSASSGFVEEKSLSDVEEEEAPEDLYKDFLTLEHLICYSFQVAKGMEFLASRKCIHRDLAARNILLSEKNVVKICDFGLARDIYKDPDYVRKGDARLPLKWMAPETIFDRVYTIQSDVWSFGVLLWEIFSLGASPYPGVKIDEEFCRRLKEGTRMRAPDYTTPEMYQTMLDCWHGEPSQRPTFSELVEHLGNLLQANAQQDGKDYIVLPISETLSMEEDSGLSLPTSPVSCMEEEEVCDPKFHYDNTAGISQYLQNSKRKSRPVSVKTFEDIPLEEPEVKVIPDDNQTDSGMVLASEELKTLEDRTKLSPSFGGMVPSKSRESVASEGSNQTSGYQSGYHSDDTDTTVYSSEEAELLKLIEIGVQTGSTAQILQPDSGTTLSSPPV
T4 sequence (P09038 134-288): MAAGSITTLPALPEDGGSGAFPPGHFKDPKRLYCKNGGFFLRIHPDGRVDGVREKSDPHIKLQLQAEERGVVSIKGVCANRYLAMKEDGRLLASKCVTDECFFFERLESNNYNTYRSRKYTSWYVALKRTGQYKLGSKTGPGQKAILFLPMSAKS

For the molecule `O=C(O)c1cccc(NC(=O)c2cc(O)c(C(=O)O)cc2O)c1` [Ia-002a, 4-(3-carboxyphenylaminocarbonyl)-2,5-dihydroxybenzoic acid], the IC50 at VEGFR-2 was found to be 5.7 µM; on VEGF-A, 71 µM; on FGF-1, 20 µM; in the test with Human neutrophils [1] it was 0.312 µM; at FGF-2, 59 µM. In the test with Human neutrophils [1], this molecule yielded an inhibition at 0.3 µM of 42.1%. For the same molecule, in the test on Human neutrophils [2], the Neutrophil adhesion inhibition is on record as 27.92%.
As to `CCOC(=O)c1cc(O)c(C(=O)Nc2ccccc2-c2nnn[nH]2)cc1O` [Ia-001a-Tz-E1, ethyl 4-(2-(1H-tetrazol-5-yl)phenylaminocarbonyl)-2,5-dihydroxybenzoate], the 50% inhibitory concentration (IC50) at VEGFR-2 was 3.8 µM; on VEGF-A it was no less than 200 µM; at FGF-1, no less than 200 µM; on FGF-2 it was no less than 200 µM. This molecule displayed an inhibition at 0.3 µM with Human neutrophils [1] of 76%. Moreover, the Neutrophil adhesion inhibition with Human neutrophils [2] is 98.88%.
For the molecule `O=C(O)Cc1ccccc1NC(=O)c1cc(O)c(C(=O)O)cc1O` [Ia-034a, 4-(2-(carboxymethyl)phenylaminocarbonyl)-2,5-dihydroxybenzoic acid], the IC50 at VEGFR-2 is no less than 100 µM; on VEGF-A, 102 µM; on FGF-1 it was 79 µM; with Human neutrophils [1] it was 2.28 µM; on FGF-2 it was 14 µM. This molecule also returned an inhibition at 0.3 µM with Human neutrophils [1] of 49.1%. The Neutrophil adhesion inhibition in the test with Human neutrophils [2] stood at 15%.
In the case of `O=C(O)c1cc(O)c(C(=O)Nc2ccc(C(=O)O)c(C(=O)O)c2)cc1O` [Ia-014a, 4-(4-carboxy-2,5-dihydroxybenzamido)phthalic acid], the IC50 on VEGFR-2 is no less than 100 µM; at VEGF-A, 88 µM; at FGF-1, 20 µM; in the test on Human neutrophils [1] it was 1 µM; on FGF-2, 20 µM. Also, in the test on Human neutrophils [1], the inhibition at 0.3 µM was determined as 61.3%. The molecule also yielded a Neutrophil adhesion inhibition in the test with Human neutrophils [2] of 9.667%.
`O=C(O)c1cc(O)cc(C(=O)Nc2c(C(=O)O)cccc2C(=O)O)c1O` [IIa-013a, 2-(3-carboxy-2,5-dihydroxybenzamido)isophthalic acid]: the IC50 is no less than 100 µM on VEGFR-2; 34 µM at VEGF-A; 137 µM at FGF-1; 2.54 µM in the test with Human neutrophils [1]; 12 µM at FGF-2. Also, in the test on Human neutrophils [1], at 0.3 µM the inhibition was 57.7%. The Neutrophil adhesion inhibition in the test on Human neutrophils [2] is 15.75%.
For the molecule `O=C(O)c1cc(O)c(C(=O)Nc2cccc(-c3nnn[nH]3)c2)cc1O` [Ia-002a-Tz, 4-(3-(1H-tetrazol-5-yl)phenyl-aminocarbonyl)-2,5-dihydroxybenzoic acid], the IC50 is no less than 100 µM on VEGFR-2; 57 µM at VEGF-A; 10 µM at FGF-1; 1.86 µM in the test with Human neutrophils [1]; 53 µM on FGF-2. The same molecule showed an inhibition at 0.3 µM in the test on Human neutrophils [1] of 66.6%. The Neutrophil adhesion inhibition in the test with Human neutrophils [2] is recorded as 38.5%.
Consider `O=C(O)Cc1cc(O)c(C(=O)Nc2cc(C(=O)O)cc(C(=O)O)c2)cc1O` [IIIa-015a, 5-(4-(carboxymethyl)-2,5-dihydroxybenzamido)isophthalic acid], for which the IC50 stood at 0.89 µM at VEGFR-2, 202 µM on VEGF-A, 16 µM at FGF-1 and 114 µM on FGF-2. The same molecule gave an inhibition at 0.3 µM in the test on Human neutrophils [1] of 78.8%. The Neutrophil adhesion inhibition with Human neutrophils [2] is given as 12.13%.
In the case of `O=C(O)c1cc(O)c(C(=O)Nc2c(C(=O)O)cccc2C(=O)O)cc1O` [Ia-013a, 2-(4-carboxy-2,5-dihydroxybenzamido)isophthalic acid], the IC50 on VEGFR-2 is no less than 100 µM; at VEGF-A, 17 µM; on FGF-1, 29 µM; in the test on Human neutrophils [1] it was 2.38 µM; on FGF-2, 18 µM. The same molecule gave an inhibition at 0.3 µM with Human neutrophils [1] of 38.5%. Further, the Neutrophil adhesion inhibition in the test with Human neutrophils [2] was 27.67%.
Consider `O=C(O)c1cc(O)c(CSCc2cc(O)c(C(=O)O)cc2O)cc1O` [IIIc-058a, 4-((2,5-Dihydroxy-4-carboxyphenyl)methylthiomethyl)-2,5-dihydroxybenzoic acid], for which the IC50 at VEGFR-2 came to 0.29 µM; on VEGF-A, 124 µM; at FGF-1, 12 µM; with Human neutrophils [1] it was 1.17 µM; at FGF-2 it was 12 µM. In the test with Human neutrophils [1], this molecule yielded an inhibition at 0.3 µM of 61.2%. In the test with Human neutrophils [2], this molecule came in with a Neutrophil adhesion inhibition of 23%.
In the case of `O=C(O)c1cc(O)c(C(=O)NCCc2ccc(O)c(O)c2)cc1O` [Ia-035a-2, 4-(2-(3,4-Dihydroxyphenyl)ethylaminocarbonyl)-2,5-dihydroxybenzoic acid], the IC50 on VEGFR-2 was determined as 10 µM; at VEGF-A, 109 µM; at FGF-1, 10 µM; with Human neutrophils [1] it was 1.1 µM; on FGF-2, 65 µM. Testing at 0.3 µM in the test with Human neutrophils [1] gave an inhibition of 58.8%. For the same molecule, the Neutrophil adhesion inhibition in the test with Human neutrophils [2] worked out at 21.5%.
As to `COC(=O)c1cc(O)cc(CS(=O)(=O)Cc2cc(O)cc(C(=O)OC)c2O)c1O` [IVc-059a-E2], the IC50 on VEGFR-2 is 2.7 µM; at VEGF-A, no less than 200 µM; at FGF-1, 78 µM; in the test on Human neutrophils [1], 2.64 µM; on FGF-2, 94 µM. This molecule had an inhibition at 0.3 µM in the test with Human neutrophils [1] of 45.7%. Also, the Neutrophil adhesion inhibition in the test on Human neutrophils [2] was determined as 50.5%.
Take `O=C(O)c1cc(O)c(C(=O)NCc2ccccc2C(=O)O)cc1O` [Ia-053a, 4-(2-Carboxyphenylmethylaminocarbonyl)-2,5-dihydroxybenzoic acid]: the half-inhibitory concentration (IC50) was no less than 100 µM on VEGFR-2; 210 µM at VEGF-A; no less than 150 µM at FGF-1; 2.5 µM in the test with Human neutrophils [1]; 124 µM on FGF-2. The molecule further showed an inhibition at 0.3 µM in the test with Human neutrophils [1] of 52.9%. Moreover, the Neutrophil adhesion inhibition in the test on Human neutrophils [2] is recorded as 18.67%.
As for `O=C(O)c1cc(NC(=O)c2cc(O)c(C(=O)O)cc2O)ccc1O` [Ia-004a, 4-(3-carboxy-4-hydroxyphenylaminocarbonyl)-2,5-dihydroxybenzoic acid], the IC50 on VEGFR-2 is 7.7 µM; at VEGF-A it was 28 µM; on FGF-1 it was 32 µM; on FGF-2, 15 µM. The inhibition at 0.3 µM in the test with Human neutrophils [1] worked out at 64.6%. In the test with Human neutrophils [2], this molecule showed a Neutrophil adhesion inhibition of 28.38%.
